Experimental data published in patent US11208435B2, “Verticilide enantiomer and methods of inhibiting cardiac ryanodine receptor-mediated intracellular calcium release” (Vanderbilt University, priority 2017, dated 2021).

Columns and labels:
[1] = target: T1, RyR2 (Sus scrofa, UniProt A0A5G2R1W3); assay: [3H]ryanodine binding to cardiac SR; design: species or system porcine; conditions: for [3H]ryanodine binding (RyR2 activity): 50 μM, three hours
T1 construct: cardiac ventricle (RyR2); from tissue; host or cells: porcine cardiac ventricle sarcoplasmic reticulum
Procedure: (§1) (FIG. 2A) Representative confocal line scans of Ca2+ sparks in the absence (DMSO) or presence of 25 μM nat-1 or ent-1 in permeabilized Casq2−/− cardiomyocytes. (FIG. 2B) Ca2+ spark frequency in Casq2−/− cells treated with 25 μM nat-1, 7, 8, and their respective enantiomers. (FIG. 2C) Comparison of [3H]ryanodine binding to SR isolated from porcine longissimus dorsi (RyR1) or cardiac ventricle (RyR2) in the presence of 50 μM nat-1, ent-1, or tetracaine (tet). (FIG. 2D) Dose response curves for ent-1 and tet inhibition of [3H]ryanodine binding to RyR2. (FIG. 2E) Representative Ca2+ sparks from permeabilized wild-type cardiomyocytes treated with 3 μM ent-1, 25 μM flecainide, or 50 μM tetracaine. Graph indicates amplitude of Ca2+ release of the selected representative sparks over time. (FIG. 2F) Percent change in spark frequency, amplitude, mass, leak, and SR Ca2+ content relative to vehicle (DMSO), obtained from wild-type myocytes. SR Ca2+ content was measured as the Ca2+ transient amplitude elicited by application of 10 mM caffeine (n≥5 cells per group). Data are presented as mean±SEM. N≥30 cells per group for A, B, and F. N=4 replicates for each concentration tested in C and D. *p<0.05 vs DMSO, **p<0.01 vs DMSO, ***p<0.001 vs DMSO by 1-way ANOVA with Tukey's post-hoc test (B) or t-test (C, D, and F).
(§2) Skeletal and cardiac SR were incubated with 50 μM nat-1, ent-1, and tetracaine for three hours. Nat-1 increased RyR1 activity, but had no effect on RyR2 (FIG. 2C). Conversely, ent-1 inhibited RyR2, but had no effect on RyR1. The well-established RyR inhibitor, tetracaine, inhibited both isoforms. Ent-1 was selected to generate full dose response curves for both cardiac and skeletal SR. Ent-1 inhibited RyR2 in a concentration-dependent manner with an apparent IC50 of approximately 0.1 μM and maximal inhibition of approximately 20% (FIG. 2D), but had no effect on RyR1 up to 50 μM (Figure S2). […] To further characterize the Ca^2+ release inhibition by ent-1, the present inventors applied a lower concentration (3 μM) to wild type mouse myocytes and compared results to two other classical Ca^2+ release inhibitors, flecainide and tetracaine (representative line scans and sparks are shown in FIG. 2E).

[2] = test system: Casq2^−/− mice; assay: Catecholamine-induced ventricular arrhythmia, ECG in Casq2-/- mice; format: in vivo, mouse; conditions: 30 mg/kg i.p.
Procedure: (FIG. 3A) Isolated cardiomyocytes were field stimulated at 3 Hz for 20 seconds followed by 40 seconds recording of SCR events (†). Application of 10 mM caffeine (caff) was used to measure SR Ca2+ content. (FIG. 3B) SCR frequency following cessation of pacing. N=63, 27, 31, 63, 30, and 27 cells for […] ent-1, respectively. **p<0.01, ***p<0.001 vs DMSO by t-test. (FIG. 3C) Representative heart rate traces in Casq2−/− mice treated with DMSO or ent-1. Isoproterenol (3.0 mg/kg i.p.) was injected at 0 s. Rhythm strips show arrhythmia features. Ectopic beats (†) produce a variable HR in the traces. (FIG. 3D) Quantification of catecholamine-induced ectopic beats by surface electrocardiogram in Casq2−/− mice injected intraperitoneally with 30 mg/kg (drug/body weight) nat-1 or ent-1 or DMSO of equivalent volume 30 minutes prior to recordings. ***p<0.001 vs DMSO or ###p<0.001 vs nat-1 by Mann-Whitney U-test. (FIG. 3E) Incidence of ventricular tachycardia (VT). p=0.0305 for ent-1 vs DMSO (*) or ent-1 vs nat-1 (#) by Fisher's exact test. N=22 mice per group (D and E). Data in B and D presented as mean±SEM.
To determine whether ent-1 inhibition of Ca^2+ release in cardiomyocytes in vitro translates into activity against ventricular arrhythmia in vivo, Casq2^−/− mice were injected intraperitoneally with 30 mg/kg nat-1, ent-1, or DMSO of equivalent volume. […]

[3] = [Ca2+]free by Fluo-4 fluorescence under spark assay conditions; format: physicochemical; conditions: 25 μM, 10 minutes in internal spark solution
Procedure: Ventricular mouse myocytes were isolated, permeabilized with saponin to enable equivalent access of the compounds to the SR membrane, and incubated with DMSO or 25 μM nat- and ent-1, 7, 8. RyR2 activity was measured in the form of Ca^2+ sparks, which are elementary Ca^2+ release events generated by spontaneous openings of intracellular RyR2 Ca^2+ release channels. […] Cardiac SR Ca^2+ release is sensitive to the Ca^2+ concentration present at the cytosolic face of RyR2. To confirm that [Ca^2+]free was not altered by any of the compounds, Fluo-4 fluorescence was measured under spark assay conditions. The internal spark solution was incubated with DMSO or 25 μM nat-1, 7, 8, and their respective enantiomers for 10 minutes and [Ca^2+]free was calculated from a set of Ca^2+ standards.

[4] = target: T2, RyR1 (Sus scrofa, UniProt P16960); assay: [3H]ryanodine binding to skeletal muscle SR; design: species or system porcine; conditions: 50 μM, three hours
T2 construct: SR isolated from porcine longissimus dorsi (RyR1); from tissue; host or cells: porcine longissimus dorsi sarcoplasmic reticulum
Procedure: as §1, with “F). […]” for “F).”

[5] = test system: insect RyR; conditions: read-out: IC50, binding insect RyR; cited from earlier work
[6] = target: T3, RyR2 (Mus musculus, UniProt E9Q401); assay: Ca2+ sparks in saponin-permeabilized Casq2-/- ventricular myocytes; format: cell-based; conditions: 25 μM, permeabilized Casq2-/- cardiomyocytes, vs DMSO
T3 construct: spontaneous openings of intracellular RyR2; endogenous in cells; host or cells: ventricular cardiomyocytes isolated from Casq2-/- mice (A1, A6) or wild-type mice (A5)
Procedure: (FIG. 2A) Representative confocal line scans of Ca2+ sparks in the absence (DMSO) or presence of 25 μM nat-1 or ent-1 in permeabilized Casq2−/− cardiomyocytes. (FIG. 2B) Ca2+ spark frequency in Casq2−/− cells treated with 25 μM nat-1, 7, 8, and their respective enantiomers. (FIG. 2C) Comparison of [3H]ryanodine binding to SR isolated from porcine longissimus dorsi (RyR1) or cardiac ventricle (RyR2) in the presence of 50 μM nat-1, ent-1, or tetracaine (tet). (FIG. 2D) Dose response curves for ent-1 and tet inhibition of [3H]ryanodine binding to RyR2. (FIG. 2E) Representative Ca2+ sparks from permeabilized wild-type cardiomyocytes treated with 3 μM ent-1, 25 μM flecainide, or 50 μM tetracaine. […] SR Ca2+ content was measured as the Ca2+ transient amplitude elicited by application of 10 mM caffeine (n≥5 cells per group). […]
Ventricular mouse myocytes were isolated, permeabilized with saponin to enable equivalent access of the compounds to the SR membrane, and incubated with DMSO or 25 μM nat- and ent-1, 7, 8. RyR2 activity was measured in the form of Ca^2+ sparks, which are elementary Ca^2+ release events generated by spontaneous openings of intracellular RyR2 Ca^2+ release channels. […] To confirm that [Ca^2+]free was not altered by any of the compounds, Fluo-4 fluorescence was measured under spark assay conditions. […]

[7] = target: T3, RyR2; assay: Ca2+ sparks in permeabilized wild-type myocytes; format: cell-based; conditions: 3 μM ent-1, 25 μM flecainide, 50 μM tetracaine
Procedure: as §1, §2

[8] = test system: spontaneous Ca^2+ waves; conditions: 10 μM; cited from earlier work

T3 sequence (E9Q401 whole entry): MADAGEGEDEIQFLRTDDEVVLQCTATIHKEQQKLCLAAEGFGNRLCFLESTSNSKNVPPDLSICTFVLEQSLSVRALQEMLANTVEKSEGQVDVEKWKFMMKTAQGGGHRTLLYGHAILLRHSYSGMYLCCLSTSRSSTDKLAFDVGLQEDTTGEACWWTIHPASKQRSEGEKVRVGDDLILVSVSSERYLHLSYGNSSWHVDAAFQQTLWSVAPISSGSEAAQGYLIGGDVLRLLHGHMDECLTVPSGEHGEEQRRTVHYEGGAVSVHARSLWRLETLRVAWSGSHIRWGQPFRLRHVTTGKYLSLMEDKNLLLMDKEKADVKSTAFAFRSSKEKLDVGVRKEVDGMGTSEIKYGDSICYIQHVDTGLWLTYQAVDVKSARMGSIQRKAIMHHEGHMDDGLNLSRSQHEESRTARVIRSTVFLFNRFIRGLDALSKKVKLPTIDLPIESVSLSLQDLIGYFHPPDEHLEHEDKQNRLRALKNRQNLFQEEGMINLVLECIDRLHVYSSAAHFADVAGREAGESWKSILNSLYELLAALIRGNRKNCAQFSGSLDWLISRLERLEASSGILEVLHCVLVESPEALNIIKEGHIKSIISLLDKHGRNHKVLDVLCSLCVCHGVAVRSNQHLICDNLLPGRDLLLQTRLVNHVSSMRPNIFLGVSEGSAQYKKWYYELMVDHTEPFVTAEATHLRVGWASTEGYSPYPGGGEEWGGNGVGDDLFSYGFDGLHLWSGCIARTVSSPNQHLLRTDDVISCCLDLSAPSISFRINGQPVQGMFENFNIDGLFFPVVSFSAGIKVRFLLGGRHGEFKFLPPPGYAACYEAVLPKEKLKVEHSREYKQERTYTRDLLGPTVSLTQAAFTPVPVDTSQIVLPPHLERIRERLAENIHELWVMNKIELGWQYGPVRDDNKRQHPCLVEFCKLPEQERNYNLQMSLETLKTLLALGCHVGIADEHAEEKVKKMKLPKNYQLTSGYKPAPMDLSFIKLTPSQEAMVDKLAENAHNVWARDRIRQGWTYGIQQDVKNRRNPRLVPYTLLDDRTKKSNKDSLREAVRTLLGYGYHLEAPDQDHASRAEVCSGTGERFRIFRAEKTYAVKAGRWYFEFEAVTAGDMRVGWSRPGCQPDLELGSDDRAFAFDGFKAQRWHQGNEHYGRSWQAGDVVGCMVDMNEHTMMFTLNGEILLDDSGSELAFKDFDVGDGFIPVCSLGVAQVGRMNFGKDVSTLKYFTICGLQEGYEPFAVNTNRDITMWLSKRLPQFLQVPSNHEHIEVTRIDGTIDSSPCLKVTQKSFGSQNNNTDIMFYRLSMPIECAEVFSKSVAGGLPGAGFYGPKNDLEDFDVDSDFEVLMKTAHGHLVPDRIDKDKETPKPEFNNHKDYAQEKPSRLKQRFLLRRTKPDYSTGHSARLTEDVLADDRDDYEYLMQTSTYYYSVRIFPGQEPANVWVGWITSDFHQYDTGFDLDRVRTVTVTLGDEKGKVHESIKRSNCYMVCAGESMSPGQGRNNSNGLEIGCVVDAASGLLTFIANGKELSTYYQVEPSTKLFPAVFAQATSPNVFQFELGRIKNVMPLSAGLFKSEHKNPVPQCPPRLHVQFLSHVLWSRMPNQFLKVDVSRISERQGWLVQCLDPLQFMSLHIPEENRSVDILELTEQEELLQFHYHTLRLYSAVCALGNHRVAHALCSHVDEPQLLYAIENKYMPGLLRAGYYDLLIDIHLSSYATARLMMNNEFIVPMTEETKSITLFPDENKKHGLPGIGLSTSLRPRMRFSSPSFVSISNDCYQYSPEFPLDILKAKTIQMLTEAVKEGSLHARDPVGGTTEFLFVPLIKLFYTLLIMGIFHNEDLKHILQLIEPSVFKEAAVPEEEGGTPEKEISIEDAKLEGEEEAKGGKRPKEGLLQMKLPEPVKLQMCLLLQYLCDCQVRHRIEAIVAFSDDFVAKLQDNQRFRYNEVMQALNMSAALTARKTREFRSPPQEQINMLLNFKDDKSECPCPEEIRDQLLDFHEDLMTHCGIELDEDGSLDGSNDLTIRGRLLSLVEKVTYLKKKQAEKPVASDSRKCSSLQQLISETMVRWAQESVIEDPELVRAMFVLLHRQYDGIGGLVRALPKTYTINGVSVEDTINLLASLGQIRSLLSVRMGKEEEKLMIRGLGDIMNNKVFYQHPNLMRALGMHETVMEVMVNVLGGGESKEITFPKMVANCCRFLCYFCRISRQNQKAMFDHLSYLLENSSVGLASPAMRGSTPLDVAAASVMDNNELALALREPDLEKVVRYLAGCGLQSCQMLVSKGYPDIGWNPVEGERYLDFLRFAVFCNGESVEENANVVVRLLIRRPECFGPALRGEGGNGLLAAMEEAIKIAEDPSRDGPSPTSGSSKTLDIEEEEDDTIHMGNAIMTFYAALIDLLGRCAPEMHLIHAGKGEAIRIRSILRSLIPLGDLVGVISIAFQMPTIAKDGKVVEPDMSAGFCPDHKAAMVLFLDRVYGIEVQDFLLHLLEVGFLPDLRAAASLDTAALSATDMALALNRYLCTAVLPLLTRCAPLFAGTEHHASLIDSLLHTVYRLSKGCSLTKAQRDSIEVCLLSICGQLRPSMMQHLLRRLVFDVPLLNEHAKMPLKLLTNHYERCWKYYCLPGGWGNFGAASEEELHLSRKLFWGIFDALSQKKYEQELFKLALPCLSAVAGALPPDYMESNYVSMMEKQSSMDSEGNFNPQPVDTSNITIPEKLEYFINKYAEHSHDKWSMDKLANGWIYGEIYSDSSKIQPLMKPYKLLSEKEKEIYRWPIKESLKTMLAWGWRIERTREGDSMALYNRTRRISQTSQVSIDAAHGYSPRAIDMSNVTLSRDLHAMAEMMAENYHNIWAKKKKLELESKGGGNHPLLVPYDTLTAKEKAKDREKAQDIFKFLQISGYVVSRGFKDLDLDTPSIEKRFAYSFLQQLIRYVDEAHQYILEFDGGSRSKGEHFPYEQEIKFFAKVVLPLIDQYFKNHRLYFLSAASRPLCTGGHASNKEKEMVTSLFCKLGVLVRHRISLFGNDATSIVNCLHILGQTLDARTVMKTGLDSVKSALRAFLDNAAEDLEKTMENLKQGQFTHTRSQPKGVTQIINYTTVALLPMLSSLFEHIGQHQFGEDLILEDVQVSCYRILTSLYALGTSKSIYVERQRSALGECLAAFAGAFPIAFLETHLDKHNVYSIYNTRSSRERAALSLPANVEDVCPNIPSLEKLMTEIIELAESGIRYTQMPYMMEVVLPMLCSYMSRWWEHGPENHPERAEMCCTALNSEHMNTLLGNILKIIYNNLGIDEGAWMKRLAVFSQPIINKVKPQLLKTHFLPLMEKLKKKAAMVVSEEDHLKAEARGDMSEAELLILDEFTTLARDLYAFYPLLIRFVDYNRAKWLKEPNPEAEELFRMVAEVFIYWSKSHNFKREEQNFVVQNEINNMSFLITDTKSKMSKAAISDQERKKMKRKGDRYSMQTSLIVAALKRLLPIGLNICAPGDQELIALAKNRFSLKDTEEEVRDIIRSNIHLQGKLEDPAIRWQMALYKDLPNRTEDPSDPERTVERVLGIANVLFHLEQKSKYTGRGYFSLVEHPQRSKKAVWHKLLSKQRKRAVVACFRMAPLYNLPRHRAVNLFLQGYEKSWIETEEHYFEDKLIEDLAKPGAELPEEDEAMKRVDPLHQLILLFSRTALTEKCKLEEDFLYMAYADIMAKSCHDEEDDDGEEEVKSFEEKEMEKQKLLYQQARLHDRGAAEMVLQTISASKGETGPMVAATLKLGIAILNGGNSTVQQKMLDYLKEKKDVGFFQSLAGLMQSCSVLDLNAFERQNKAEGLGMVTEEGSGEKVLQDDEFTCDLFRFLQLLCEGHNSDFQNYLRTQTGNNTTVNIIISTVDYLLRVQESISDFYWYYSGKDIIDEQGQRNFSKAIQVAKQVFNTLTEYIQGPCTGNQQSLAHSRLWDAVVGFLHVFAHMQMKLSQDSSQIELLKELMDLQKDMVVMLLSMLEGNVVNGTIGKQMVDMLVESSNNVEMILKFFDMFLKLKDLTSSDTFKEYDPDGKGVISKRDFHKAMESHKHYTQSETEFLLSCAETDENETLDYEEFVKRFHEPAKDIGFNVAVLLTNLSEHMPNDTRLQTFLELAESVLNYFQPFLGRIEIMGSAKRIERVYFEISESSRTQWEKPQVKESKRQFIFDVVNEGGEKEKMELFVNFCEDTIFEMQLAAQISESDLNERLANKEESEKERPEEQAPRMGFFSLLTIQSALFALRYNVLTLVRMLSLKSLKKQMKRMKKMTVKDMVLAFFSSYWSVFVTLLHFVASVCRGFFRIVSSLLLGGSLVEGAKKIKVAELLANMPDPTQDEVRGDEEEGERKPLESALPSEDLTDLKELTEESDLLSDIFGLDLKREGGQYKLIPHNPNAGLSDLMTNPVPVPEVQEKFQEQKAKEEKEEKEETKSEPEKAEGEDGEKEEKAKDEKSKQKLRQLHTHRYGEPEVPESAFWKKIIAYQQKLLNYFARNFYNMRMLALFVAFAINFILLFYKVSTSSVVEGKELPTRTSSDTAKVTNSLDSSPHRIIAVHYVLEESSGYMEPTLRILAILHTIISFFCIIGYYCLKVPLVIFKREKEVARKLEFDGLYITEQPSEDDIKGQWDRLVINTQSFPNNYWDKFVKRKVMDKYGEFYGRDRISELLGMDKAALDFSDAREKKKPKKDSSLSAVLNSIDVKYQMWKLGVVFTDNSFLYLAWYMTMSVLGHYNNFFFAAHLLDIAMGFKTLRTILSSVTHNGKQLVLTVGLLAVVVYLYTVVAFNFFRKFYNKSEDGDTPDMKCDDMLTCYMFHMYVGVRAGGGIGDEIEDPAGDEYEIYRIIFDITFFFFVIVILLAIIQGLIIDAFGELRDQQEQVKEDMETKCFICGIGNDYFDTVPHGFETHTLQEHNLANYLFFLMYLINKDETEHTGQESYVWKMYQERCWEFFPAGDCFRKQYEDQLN

Structure (SMILES) | [3H]ryanodine binding (RyR2 activity) [1] | [3H]ryanodine binding (RyR1 activity) [4] | Ca2+ spark frequency [7] | Ca2+ spark mass [7] | Ca2+ spark mediated SR Ca2+ leak [7] | also measured
CCCCC[C@@H]1OC(=O)[C@@H](C)N(C)C(=O)[C@H](CCCCC)OC(=O)[C@@H](C)N(C)C(=O)[C@H](CCCCC)OC(=O)[C@@H](C)N(C)C(=O)[C@H](CCCCC)OC(=O)[C@@H](C)N(C)C1=O (single isomer, unassigned) [ent-1, ent-(+)-verticilide] |  |  |  |  |  | IC50 [1]: ~100 nM; maximal inhibition of [3H]ryanodine binding to RyR2 ([1]; dose response, cardiac SR): approximately 20%; ECG PR interval ([2]; index of Ca2+ channel block): no significant effect; ECG QRS duration ([2]; index of Na+ channel block): no significant effect
CCCCCC1OC(=O)C(C)N(C)C(=O)C(CCCCC)OC(=O)C(C)N(C)C(=O)C(CCCCC)OC(=O)C(C)N(C)C(=O)C(CCCCC)OC(=O)C(C)N(C)C1=O (single isomer, unassigned; (-)) [nat-1, (−)-Verticilide] | no effect | increased |  |  |  | binding to Ca2+ ([Ca2+]free) [3]: did not bind to Ca^2+; IC50 [5]: 4200 nM; Ca2+ spark frequency [6]: no effect
O=C(NCC1CCCCN1)c1cc(OCC(F)(F)F)ccc1OCC(F)(F)F (stereo not drawn) [flecainide] |  |  | paradoxical increase | reduces the amount of Ca^2+ released during a spark | leak-neutral blocker | effectiveness in suppressing spontaneous Ca2+ waves [8]: 30%
CCCCNc1ccc(C(=O)OCCN(C)C)cc1 [tetracaine] | inhibited | inhibited | depresses | did not reduce | only modestly reduces | 
